Experimental data from patent US20110301155A1, “INDAZOLE COMPOUNDS FOR ACTIVATING GLUCOKINASE” (priority 2007, published 2011).
Where a name gives a salt, the structure may show the parent alone.

The compounds below were run against T1, GK (recombinant glucokinase, residues 12-465 of the human enzyme) (Homo sapiens, UniProt P35557) (assay: Determination of GK activity value (luminescence assay)). Settings: calculated maximal gain in GK enzyme activity at saturating compound concentration; 5 mM glucose, 5 μM ATP.
T1 construct: FLAG (C-terminal tag of vector pFLAG-CTC; only the vector is printed) (C); made in house; host or cells: Escherichia coli DH10b-T1r (pFLAG-CTC plasmid)
T1 sequence (P35557 12-465): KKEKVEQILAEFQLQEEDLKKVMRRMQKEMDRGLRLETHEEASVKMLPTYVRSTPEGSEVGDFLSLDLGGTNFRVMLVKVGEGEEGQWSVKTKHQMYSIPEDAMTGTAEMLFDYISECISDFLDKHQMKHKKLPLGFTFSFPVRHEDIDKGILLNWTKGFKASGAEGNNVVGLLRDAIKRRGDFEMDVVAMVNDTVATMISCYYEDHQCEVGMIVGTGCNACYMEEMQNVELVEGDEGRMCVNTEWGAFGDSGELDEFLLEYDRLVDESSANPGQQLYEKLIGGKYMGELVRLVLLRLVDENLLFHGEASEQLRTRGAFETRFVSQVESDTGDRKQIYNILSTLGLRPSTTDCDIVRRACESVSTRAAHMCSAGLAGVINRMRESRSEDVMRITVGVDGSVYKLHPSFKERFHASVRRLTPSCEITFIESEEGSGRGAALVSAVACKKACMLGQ
Format: biochemical
From the text: DNA encoding residues 12-465 of the full-length sequence of the human enzyme may be amplified by PCR and cloned into the HindIII and EcoRI sites of pFLAG-CTC (Sigma). SEQ.I.D. No. 1 corresponds to residues 12-465 of glucokinase.
The expression of recombinant glucokinase protein may be carried out by transformation and growth of DH10b-T1r E. coli cells incorporating the (pFLAG-CTC) plasmid in LB media. Protein expression can be induced in this system by the addition of IPTG to the culture medium.
Recombinant protein may be isolated from cellular extracts by passage over Sepharose Q Fast Flow resin (Pharmacia). This partially purified GK extract may then be further purified by a second passage over Poros HQ10 (Applied Biosystems). The purity of GK may be determined on denaturing SDS-PAGE gel. Purified GK may then be concentrated to a final concentration of 20.0 mg/ml. After flash freezing in liquid nitrogen, the proteins can be stored at −78° C. in a buffer containing 25 mM TRIS-HCl pH 7.6, 50 mM NaCl, and 0.5 mM TCEP.
The activation properties of compounds for GK may be determined using a black 384-well-plate format under the following reaction conditions: 25 mM Hepes pH 7.2, 25 mM NaCl, 10 mM MgCl2, 0.01% Brij35, 1 mM DTT, 5 μM ATP, 5 mM Glucose 2% DMSO. The amount of ATP consumed may be determined quantitatively by addition of equal volume of luciferase reagent (luciferase+beetle luciferin—KinaseGlo Luminescent Kinase Assay kit from Promega). The luminescence intensity may be measured by using the Analyst HT from LJL Biosystems.
The assay reaction may be initiated as follows: 4 μl of substrate mixture (12.5 μM ATP and 12.5 mM Glucose) was added to each well of the plate, followed by the addition of 2 μl of activator (2 fold serial dilutions for 11 data points for each activator) containing 10% DMSO. 4 μL of 1.25 nM GK solution obtained in Reference Example 3A may be added to initiate the reaction. The reaction mixture may then be incubated at room temperature for 60 min, and quenched and developed by addition of 10 μL of luciferase reagent. Luminescence intensities of the resulting reaction mixtures may be measured after a 10 min incubation at room temperature. The luminescence intensity may be measured by using the Analyst HT from LJL Biosystems.
% ACTmax values may be calculated by non-linear curve fitting of the compound concentrations and luminescence intensities to a standard inhibition/activation equation. % ACTmax represents the calculated maximal gain in GK enzyme activity at a saturating concentration of the compound. % ACTmax values for select compounds of the present invention are given in Table 2.

% ACTmax [%] | SMILES
146.5 | COCC(O)Cn1ccc(Nc2n[nH]c3c(Oc4ccc(S(C)(=O)=O)cc4)cc(-c4ncccc4Cl)cc23)n1 (stereo not shown) [Example 140, 1-(3-(5-(3-chloropyridin-2-yl)-7-(4-(methylsulfonyl)phenoxy)-1H-indazol-3-ylamino)-1H-pyrazol-1-yl)-3-methoxypropan-2-ol]
24.1 | Cn1ccc(Nc2nn(C)c3c(Oc4ccc(S(C)(=O)=O)cc4)cc(-c4ncccc4Cl)cc23)n1 [Example 134, 5-(3-chloropyridin-2-yl)-1-methyl-N-(1-methyl-1H-pyrazol-3-yl)-7-(4-(methylsulfonyl)phenoxy)-1H-indazol-3-amine]
147.8 | CS(=O)(=O)c1ccc(Oc2cc(-c3ncccc3Cl)cc3c(Nc4ccn(CC(O)CO)n4)n[nH]c23)cc1 (stereo not shown) [Example 131, 3-(3-(5-(3-chloropyridin-2-yl)-7-(4-(methylsulfonyl)phenoxy)-1H-indazol-3-ylamino)-1H-pyrazol-1-yl)propane-1,2-diol]
110.9 | CC(C)S(=O)(=O)c1cc(Oc2ccc(S(C)(=O)=O)cc2)c2[nH]nc(Nc3ccn(C)n3)c2c1 [Example 136, 5-(isopropylsulfonyl)-N-(1-methyl-1H-pyrazol-3-yl)-7-(4-(methylsulfonyl)phenoxy)-1H-indazol-3-amine trifluoroacetic acid salt]
